Measurements: patent US20150291565A1, “INDOLE COMPOUNDS AND THEIR USE AS ANTIMICROBIALS” (Memorial Sloan-Kettering Cancer Center, priority 2012, published 2015)
≈ marks a conversion by molar mass, not a printed value. Where two headings read alike, the source gives them in different places.

What was measured:
P. aeruginosa ATCC 9027 = test: Broth dilution MIC, P. aeruginosa ATCC 9027; format: cell-based; conditions: Pseudomonas aeruginosa
K. pneumoniae ATCC 13883 = test: Broth dilution MIC, K. pneumoniae ATCC 13883; format: cell-based; conditions: Klebsiella pneumoniae
[1] = tested on: S. aureus ATCC 33591 (MRSA); test: Broth dilution MIC, S. aureus ATCC 33591; format: cell-based; conditions: for MIC: Staphylococcus aureus
S. aureus BAA-39 (MDR) = test: Broth dilution MIC, S. aureus BAA-39; format: cell-based; conditions: for MIC: Staphylococcus aureus, BAA39
[2] = tested on: S. pneumoniae ATCC 700674 (PRSP); test: Broth dilution MIC, S. pneumoniae ATCC 700674; format: cell-based; conditions: Streptococcus pneumoniae
E. faecium CT-26 = test: Broth dilution MIC, E. faecium CT-26; format: cell-based; conditions: Enterococcus faecium
[3] = tested on: E. faecalis ATCC 29212 (VRE); test: Broth dilution MIC, E. faecalis ATCC 29212; format: cell-based
M. smegmatis (mc2155) = test: Disk diffusion assay, zone of inhibition, M. smegmatis; format: cell-based; conditions: disk diffusion zone of inhibition
E. coli ATCC 25922 = test: Broth dilution MIC, E. coli ATCC 25922; format: cell-based; conditions: Escherichia coli
[4] = tested on: S. pneumoniae ATCC 6301 (PSSP); test: Broth dilution MIC, S. pneumoniae ATCC 6301; format: cell-based; conditions: Streptococcus pneumoniae
C. albicans ATCC 14053 = test: Broth dilution MIC, C. albicans ATCC 14053; format: cell-based; conditions: Candida albicans, ATCC14053; Table 1; range 64 down to 0.12 μg/ml
Description: In vitro Anti-bacterial & Anti-fungal Activity Assay: All test compounds were prepared as 6.4 mg/ml stock solutions in DMSO and further diluted according to the NCCLS M7-A6 (Page 5) document with sterile water or appropriate diluent. A working stock of 256 μg/ml was used to do 1:2 serial dilutions in 96-well plates. […] The inoculums were prepared by making a direct sterile water suspension of isolated colonies from 18 to 24 hr agar plates for all organisms (Mueller Hinton, Blood Agar or SDA plates). Each bacterial suspension was adjusted to read between 0.09 and 0.11 absorbance at 620 nm. […] These were further diluted 1/100 in appropriate broth for inoculating the 96-well plates. The C. albicans suspension was adjusted to read between 70 and 75% Transmittance at 530 nm and then diluted 1/500 in RPMI+MOPS broth. All aerobic bacterial and fungal plates were incubated for 18 hrs. at 35° C. […] Plates were read using a Beckman Automated Plate Reader at 650 nm. Readings were confirmed by visual examination of plates. (See Table 1, Table 2, Table 3, and Table 4). […] It is important to note that positive results against C. albicans are often indicative of broad spectrum antifungal activity, while negative results are not necessarily conclusory of a lack of activity against other fungus.

[5] = tested on: E. faecium ATCC 700221 (VRE); test: Broth dilution MIC, E. faecium ATCC 700221; format: cell-based
E. coli ECM 1694 = test: Broth dilution MIC, E. coli ECM 1694; format: cell-based; conditions: Escherichia coli
[6] = tested on: S. aureus ATCC 29213 (MSSA); test: Broth dilution MIC, S. aureus ATCC 29213; format: cell-based; conditions: Staphylococcus aureus
MRSA = test: Disk diffusion assay, zone of inhibition, MRSA; format: cell-based, Staphylococcus aureus; conditions: disk diffusion zone of inhibition
K. pneumoniae ATCC 51503 = test: Broth dilution MIC, K. pneumoniae ATCC 51503; format: cell-based; conditions: Klebsiella pneumoniae
[7] = ATCC 9026 / ATCC 9027, Table 2, broth dilution MIC in ug/ml, read-out: MIC P aeruginosa ATCC 9026
[8] = ATCC9027, Table 1, range 64 down to 0.12 μg/ml, read-out: MIC P. aeruginosa ATCC 9027
[9] = ATCC13883, Table 1, range 64 down to 0.12 μg/ml, read-out: MIC K. pneumoniae ATCC 13883
[10] = ATCC13883, Table 2, broth dilution MIC in ug/ml, read-out: MIC K pneumonia ATCC 13883
[11] = Table 1, range 64 down to 0.12 μg/ml, read-out: MIC S. aureus ATCC 33591
[12] = Table 2, broth dilution MIC in ug/ml, read-out: MIC S aureus ATCC 33591 MRSA
[13] = Table 1, range 64 down to 0.12 μg/ml, read-out: MIC S. aureus BAA-39
[14] = Table 2, broth dilution MIC in ug/ml, read-out: MIC S aureus BAA-39 MDR
[15] = Table 1, range 64 down to 0.12 μg/ml, read-out: MIC S. pneumoniae ATCC 700674
[16] = Table 2, broth dilution MIC in ug/ml, read-out: MIC S pneumonia ATCC 700674 PRSP
[17] = CT26, Table 1, range 64 down to 0.12 μg/ml, read-out: MIC E. faecium CT-26
[18] = CT26, Table 2, broth dilution MIC in ug/ml, read-out: MIC E faecium CT-25
[19] = Enterococcus faecalis, Table 1, range 64 down to 0.12 μg/ml, read-out: MIC E. faecalis ATCC 29212
[20] = Table 2, broth dilution MIC in ug/ml, read-out: MIC E faecalis ATCC 29212 VRE
[21] = ATCC 25921 / ATCC 25922, Table 2, broth dilution MIC in ug/ml, read-out: MIC E. coli ATCC 25921
[22] = ATCC25922, Table 1, range 64 down to 0.12 μg/ml, read-out: MIC E. coli ATCC 25922
[23] = ATCC6301, Table 1, range 64 down to 0.12 μg/ml, read-out: MIC S. pneumoniae ATCC 6301
[24] = ATCC6301, Table 2, broth dilution MIC in ug/ml, read-out: MIC S pneumonia ATCC 6301 PSSP
[25] = Enterococcus faecium, Table 1, range 64 down to 0.12 μg/ml, read-out: MIC E. faecium ATCC 700221
[26] = Table 2, broth dilution MIC in ug/ml, read-out: MIC E faecium ATCC 700221 VRE
[27] = ECM1694, Table 1, range 64 down to 0.12 μg/ml, read-out: MIC E. coli ECM 1694
[28] = ECM1694, Table 2, broth dilution MIC in ug/ml, read-out: MIC E. coli ECM 1693
[29] = Table 1, range 64 down to 0.12 μg/ml, read-out: MIC S. aureus ATCC 29213
[30] = Table 2, broth dilution MIC in ug/ml, read-out: MIC S aureus ATCC 29213 MSSA
[31] = ATCC51503, Table 1, range 64 down to 0.12 μg/ml, read-out: MIC K. pneumoniae ATCC 51503
[32] = ATCC51503, Table 2, broth dilution MIC in ug/ml, read-out: MIC K pneumonia ATCC 51503

| MIC (P. aeruginosa ATCC 9027; [7]) [µg/mL] | MIC (P. aeruginosa ATCC 9027; [8]) [µg/mL] | MIC (K. pneumoniae ATCC 13883; [9]) [µg/mL] | MIC (K. pneumoniae ATCC 13883; [10]) [µg/mL] | MIC [1, 11] [µg/mL] | MIC [1, 12] [µg/mL] | MIC (S. aureus BAA-39 (MDR); [13]) [µg/mL] | MIC (S. aureus BAA-39 (MDR); [14]) [µg/mL] | MIC [2, 15] [µg/mL] | MIC [2, 16] [µg/mL] | MIC (E. faecium CT-26; [17]) [µg/mL] | MIC (E. faecium CT-26; [18]) [µg/mL] | MIC [3, 19] [µg/mL] | MIC [3, 20] [µg/mL] | MIC (E. coli ATCC 25922; [21]) [µg/mL] | MIC (E. coli ATCC 25922; [22]) [µg/mL] | MIC [4, 23] [µg/mL] | MIC [4, 24] [µg/mL] | MIC (C. albicans ATCC 14053) [µg/mL] | SMILES | Zone Size M. smegmatis (M. smegmatis (mc2155)) [mm] | further results |
| --- | --- | --- | --- | --- | --- | --- | --- | --- | --- | --- | --- | --- | --- | --- | --- | --- | --- | --- | --- | --- | --- |
| 64 (≈ 174 µM) | > 64 | > 64 | 64 (≈ 174 µM) | 8 (≈ 21.8 µM) | 8 (≈ 21.8 µM) | 16 (≈ 43.5 µM) | 16 (≈ 43.5 µM) | 32 (≈ 87.1 µM) | 32 (≈ 87.1 µM) | 4 (≈ 10.9 µM) | 4 (≈ 10.9 µM) | 8 (≈ 21.8 µM) | 8 (≈ 21.8 µM) | 32 (≈ 87.1 µM) | 32 (≈ 87.1 µM) | 8 (≈ 21.8 µM) | 8 (≈ 21.8 µM) | 64 (≈ 174 µM) | Nc1ccc(Nc2ccc(-c3cc4ccc(C5=NCCN5)cc4[nH]3)cc2)cc1 [SKI-8] | 24 | MIC [5, 25]: 4 µg/mL (≈ 10.9 µM); MIC [5, 26]: 4 µg/mL (≈ 10.9 µM); MIC (E. coli ECM 1694; [27]): 2 µg/mL (≈ 5.44 µM); MIC (E. coli ECM 1694; [28]): 2 µg/mL (≈ 5.44 µM); MIC [6, 29]: 16 µg/mL (≈ 43.5 µM); MIC [6, 30]: 16 µg/mL (≈ 43.5 µM); Zone Size MRSA (MRSA): 12 mm; MIC (K. pneumoniae ATCC 51503; [31]): > 64 µg/mL; MIC (K. pneumoniae ATCC 51503; [32]): 64 µg/mL (≈ 174 µM) |
| 16 (≈ 37.2 µM) | 16 (≈ 37.2 µM) | 4 (≈ 9.29 µM) | 4 (≈ 9.29 µM) | 0.5 (≈ 1.16 µM) | 0.5 (≈ 1.16 µM) | 0.5 (≈ 1.16 µM) | 0.5 (≈ 1.16 µM) | ≤ 0.12 | 0.12 (≈ 0.279 µM) | ≤ 0.12 | 0.12 (≈ 0.279 µM) | 0.25 (≈ 0.581 µM) | 0.25 (≈ 0.581 µM) | 2 (≈ 4.65 µM) | 2 (≈ 4.65 µM) | ≤ 0.12 | 0.12 (≈ 0.279 µM) | 8 (≈ 18.6 µM) | c1cnc(-c2ccc(Nc3ccc(-c4cc5ccc(C6=NCCN6)cc5[nH]4)cc3)cc2)cn1 [SKI-10] | 14.3 | MIC S. aureus ATCC 33591 ([1]; Table 3, starting at 4 μg/ml): 0.5 µg/mL (≈ 1.16 µM); MIC S. aureus BAA-39 (S. aureus BAA-39 (MDR); Table 3, starting at 4 μg/ml): 0.5 µg/mL (≈ 1.16 µM); MIC ([2]; Table 3, starting at 4 μg/ml, read-out: MIC S. pneumoniae ATCC 700674): 0.12 µg/mL (≈ 0.279 µM); MIC (E. faecium CT-26; CT26, Table 3, starting at 4 μg/ml, read-out: MIC E. faecium CT-26): 0.12 µg/mL (≈ 0.279 µM); MIC E. faecalis ATCC 29212 ([3]; Table 3, starting at 4 μg/ml): 0.25 µg/mL (≈ 0.581 µM); MIC ([4]; ATCC6301, Table 3, starting at 4 μg/ml, read-out: MIC S. pneumoniae ATCC 6301): 0.12 µg/mL (≈ 0.279 µM); MIC [5, 25]: ≤ 0.12 µg/mL; MIC ([5]; Enterococcus faecium, Table 3, starting at 4 μg/ml, read-out: MIC E. faecium ATCC 700221): 0.12 µg/mL (≈ 0.279 µM); MIC [5, 26]: 0.12 µg/mL (≈ 0.279 µM); MIC (E. coli ECM 1694; [27]): 0.25 µg/mL (≈ 0.581 µM); MIC (E. coli ECM 1694; [28]): 0.25 µg/mL (≈ 0.581 µM); MIC (E. coli ECM 1694; ECM1694, Table 3, starting at 4 μg/ml, read-out: MIC E. coli ECM 1694): 0.25 µg/mL (≈ 0.581 µM); MIC ([6]; Table 3, starting at 4 μg/ml, read-out: MIC S. aureus ATCC 29213): 0.5 µg/mL (≈ 1.16 µM); MIC [6, 29]: 0.5 µg/mL (≈ 1.16 µM); MIC [6, 30]: 0.5 µg/mL (≈ 1.16 µM); Zone Size MRSA (MRSA): 11 mm; MIC (K. pneumoniae ATCC 51503; [31]): 8 µg/mL (≈ 18.6 µM); MIC (K. pneumoniae ATCC 51503; [32]): 8 µg/mL (≈ 18.6 µM) |
